The text below walks through data of patent publication US8063221B2, “Aminoquinolones as GSK-3 inhibitors” (Kyorin Pharmaceutical Co., Ltd., priority 2006, dated 2011).

Values after ≈ are worked out from the molar mass of the structure shown. Like-named read-outs stand apart in the source and are kept apart here.

A short description of experiment [1]: Animal Study 1 (blood glucose in db/db mice). The format is in vivo. The settings on record: 100 mg/kg orally, 0-6 hr after administration. As to the method: Animal Study 1 Male obese hyperglycemic mice (db/db) and lean mice (C57BL/6J) were obtained from Charles River Laboratories Japan (Yokohama, Japan). All mice were given a standard diet (Clea Japan, Tokyo, Japan) and tap water ad libitum. All institutional guidelines for animal care and use were applied in this study. Test compounds were suspended in 0.3% carboxymethyl-cellulose sodium salt (CMC-Na; Sigma, St. Louis, Mo.). After fasting for 2 hr, the test compounds (100 mg/kg) were administered orally to 7-week-old db/db mice. Vehicle (0.3% CMC-Na) was administered orally to both 7-week-old db/db mice and lean mice. Blood samples were collected from tail vein using capillary tubes containing EDTA·2K at 0, 0.5, 1, 2, 4, and 6 hr after the administration. The blood samples were centrifuged at 2,500×g for 5 min and separated plasma was kept on ice and analyzed in the same day. Plasma glucose levels were determined using the glucose CII-test (Wako Pure Chemical Industries, Osaka, Japan). CHIR99021 is a selective inhibitor of GSK3 enzyme known in the art (see, Ring D B et al., Selective GSK-3 inhibitors potentiate insulin activation of glucose transport and utilization in vitro and in vivo. Diabetes 2003, 52(3): 588-595).

The nature of experiment [2]: Animal Study 2 (oral glucose tolerance test). Also noted: species or system Crlj:CD1 (ICR) mice. The settings on record: Mus musculus, read-out: In vivo studies 300 mg/kg (oral glucose tolerance test, % decrease). From the text:
The results of in vivo oral glucose tolerance test (Example 39), expressed as % decrease, are presented as follows: […]
Animal Study 2 (Oral Glucose Tolerance Test)
Male Crlj:CD1 (ICR) mice were obtained from Charles River Laboratries Japan (Yokohama, Japan). All mice were given a standard diet (Clea Japan, Tokyo, Japan) and tap water ad libitum. All institutional guidelines for animal care and use were applied in this study. Test compounds were suspended in 0.3% carboxymethyl-cellulose sodium salt (CMC-Na; Sigma, St. Louis, Mo.). After fasting for 15-17 hr, the test compound (300 mg/kg) or vehicle (0.3% CMC-Na) was orally administered to 7-week-old ICR mice. Glucose solution (5 g/kg) was orally administered at 30 min after test compound treatment. Blood samples were collected from tail vein using capillary tubes containing EDTA·2K before test compound treatment, and at 0, 0.5, 1, and 2 hr after glucose load. The blood samples were centrifuged at 2,500×g for 5 min and separated plasma was kept on ice and analyzed in the same day. Plasma glucose levels were determined using the glucose C II-test (Wako Pure Chemical Industries, Osaka, Japan).
The sum of plasma glucose levels at 0.5 and 1 hr after glucose load was compared to that of vehicle treatment, and results were presented as percent decrease.

The target of experiment [3] is T1, recombinant full-length human GSK3β (Homo sapiens, UniProt P49841).
T1 construct: recombinant full-length human GSK3β (Upstate); purchased Upstate
T1 sequence (P49841 whole entry): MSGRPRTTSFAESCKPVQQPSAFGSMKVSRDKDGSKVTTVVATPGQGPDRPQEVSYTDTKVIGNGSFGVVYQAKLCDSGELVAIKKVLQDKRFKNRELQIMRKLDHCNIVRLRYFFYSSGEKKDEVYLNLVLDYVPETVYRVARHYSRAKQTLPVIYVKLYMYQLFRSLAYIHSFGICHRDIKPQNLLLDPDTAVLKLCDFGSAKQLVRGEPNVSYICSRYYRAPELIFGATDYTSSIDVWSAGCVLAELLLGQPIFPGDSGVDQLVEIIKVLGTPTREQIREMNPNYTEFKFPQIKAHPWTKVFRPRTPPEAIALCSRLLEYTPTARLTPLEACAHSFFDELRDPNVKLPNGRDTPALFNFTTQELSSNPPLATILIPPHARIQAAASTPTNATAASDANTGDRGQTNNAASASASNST
The experiment in a line: Luciferase-coupled cell-free GSK3β kinase assay. The format is biochemical. The method in brief: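 GSK3β, 10-25 ng, was incubated with compound for 1 h at 30° C in MOPS pH 7.0 buffer containing 62.5 μM phospho-glycogen synthase peptide-2 and 5 μM ATP. Remaining ATP was read by KinaseGlo luminescence, and IC50 was fitted from % inhibition relative to maximal inhibition.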

The subject of experiment [4] is E. coli, ATCC8739. Description: Antibacterial activity (MIC), E. coli. Type of experiment: cell-based. The settings on record: Escherichia coli. The procedure, abridged:
(§1)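 MIC, the lowest compound concentration inhibiting bacterial growth in culture medium, determined by dilution method per CLSI M7-A4 guidance; reported in μM.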

In experiment [5] the test system is S. aureus Smith. Description: Antibacterial activity (MIC), S. aureus. The settings on record: Staphylococcus aureus. The format is cell-based. The method in brief:
as §1

Setting [6] is: Table 2, 300 mg/kg oral, ICR mice, plasma glucose 0.5 and 1 hr after glucose load vs vehicle.
Where [7] appears, read: ATCC8739, Table 2, E. coli ATCC8739, read-out: Antimicrobial MIC [μM] E. Coli.
[8] abbreviates: Table 2, S. aureus Smith, read-out: Antimicrobial MIC [μM] S. aureus.
Setting [9] is: Table 1, 300 mg/kg oral, ICR mice, plasma glucose 0.5 and 1 hr after glucose load vs vehicle.
The mark [10] stands for this setting: ATCC8739, Table 1, E. coli ATCC8739, read-out: Antibacterial MIC (μM) E.Coli.
Setting [11] is: Table 1, read-out: Antibacterial MIC (μM) S. aureus Smith.

Take `Cc1c[nH]c(-c2cnc(NCCNc3ccc(C#N)cn3)nc2-c2ccc(Cl)cc2Cl)n1` [CHIR99021]: the “blood glucose levels (FIG. 1)” value in experiment [1] was “drop in blood glucose levels”.

As to `C[C@H]1COc2c(NCCNc3ccccn3)c(F)c(N)c3c(=O)c(C(=O)O)cn1c23` [compound 18], in experiment [2] (setting [6]), the inhibition in vivo at 300 mg/kg was in the range of 10 to 20%. The IC50 – broadly, the concentration needed to halve the response being measured – in experiment [3] (Table 2) was below 0.1 µM. Besides, the MIC in experiment [4] (setting [7]) and in experiment [5] (setting [8]) was 0.5 to 10 µM (≈ 0.207 to 4.13 µg/mL) in each case.

As for `C[C@@H]1COc2c(NCCNc3ccccn3)c(F)c(N)c3c(=O)c(C(=O)O)cn1c23` [compound 31], the inhibition in vivo at 300 mg/kg in experiment [2] (po) was above 20%. The IC50 in experiment [3] (Table 2) lay in the range of 0.1 to 0.5 µM. Besides, the MIC – broadly, the lowest concentration found to suppress growth – in experiment [4] (ATCC8739, read-out: Antimicrobial MIC [μM] E. Coli) is 10 to 50 µM (≈ 4.13 to 20.7 µg/mL); in experiment [5] (read-out: Antimicrobial MIC [μM] S. aureus), 10 to 50 µM (≈ 4.13 to 20.7 µg/mL).

As to `CC1(C)COc2c(NCCCn3ccnc3)c(F)c(N)c3c(=O)c(C(=O)O)cn1c23` [compound 33], the inhibition in vivo at 300 mg/kg in experiment [2] (setting [6]) was above 20%. In addition, the IC50 in experiment [3] (Table 2) lay in the range of 0.1 to 0.5 µM. In addition, the MIC in experiment [4] (setting [7]) and in experiment [5] (setting [8]) was above 50 µM in each case.

Take `CC1(C)Cn2cc(C(=O)O)c(=O)c3c(N)c(F)c(NCCNc4ccccn4)c(c32)O1` [compound 57]: the inhibition in vivo at 300 mg/kg in experiment [2] (setting [6]) is above 20%. In addition, the IC50 in experiment [3] (Table 2) is 0.1 to 0.5 µM. Besides, the MIC in experiment [4] (setting [7]) and in experiment [5] (setting [8]) was 10 to 50 µM (≈ 4.27 to 21.4 µg/mL) in each case.

On to `Nc1c(F)c(NCCCn2ccnc2)c(F)c2c1c(=O)ccn2CCc1ccccc1` [compound 62], for which the inhibition in vivo at 300 mg/kg in experiment [2] (setting [9]) was in the range of 5 to 10%. Further, the 50% inhibitory concentration (IC50) in experiment [3] (Table 1) fell in the range of 0.1 to 0.5 µM. Besides, the MIC in experiment [4] (setting [10]) and in experiment [5] (setting [11]) was above 50 µM each time.

Consider `COc1c(NCCNc2cccc3ccccc23)c(F)c(N)c2c(=O)c(C(=O)O)cn(C3CC3)c12` [compound 70], for which, in experiment [2] (setting [9]), the inhibition in vivo at 300 mg/kg was below 5%. In addition, the IC50 in experiment [3] (Table 1) was below 0.1 µM. Besides, the MIC in experiment [4] (setting [10]) was above 50 µM; in experiment [5] (setting [11]), 0.5 to 10 µM (≈ 0.238 to 4.77 µg/mL).

Consider `COc1c(NCCNc2ccccn2)c(F)c(N)c2c(=O)c(C(=O)O)cn(C3CC3)c12` [compound 71], for which, in experiment [2] (setting [9]), the inhibition in vivo at 300 mg/kg lay within 10 to 20%. For the same compound, in experiment [3] (Table 1), the IC50 fell in the range of 0.1 to 0.5 µM. In addition, the MIC in experiment [4] (setting [10]) and in experiment [5] (setting [11]) was 0.5 to 10 µM (≈ 0.214 to 4.27 µg/mL) each time.
